# Reference: the supplement of paper PMC10307832
# Compound: COc1ccc(-c2ccc3c(N4CCOC[C@@H]4C)nc(N4CCOC[C@@H]4C)nc3n2)cc1CO [AZD8055] + Cc1cc(Nc2cc(N3CCN(C)CC3)nc(Sc3ccc(NC(=O)C4CC4)cc3)n2)n[nH]1 [Tozasertib] (partner 0.1 µM)
# Assay: relative viability (nuclei count vs DMSO), 5 days (fraction); higher = more cells survive
# Procedure, shortened: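 Nuclei were stained with Hoechst during a one-step fixation (final 0.05% Triton X-100, 1% formaldehyde, 1 ug/ml Hoechst) carried out 5 days after dosing, then counted on 4× images. The cells, lung cancer lines in 1536-well plates, had been dosed by pin tool the day after seeding with one drug alone or a fixed anchor-drug dose plus five library-drug doses (not always all listed) in √10 steps. Relative viability is the nuclei count in treated wells divided by that in vehicle wells, and each value is the median of duplicate plates.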
Cell Line,relative viability (first compound 0.01 µM),relative viability (first compound 0.03162 µM),relative viability (first compound 0.1 µM),relative viability (first compound 0.3162 µM),relative viability (first compound 1 µM)
201T,0.98,0.895,0.813,0.529,0.595
A-427,0.204,0.193,0.22,0.163,0.208
ABC-1,0.186,0.187,0.174,0.196,0.19
BEN,0.563,0.48,0.492,0.471,0.345
CAL-12T,0.329,0.37,0.277,0.174,0.166
COR-L23,0.278,0.295,0.228,0.15,0.154
COR-L 105,0.326,0.354,0.304,0.282,0.27
ChaGo-K-1,0.214,0.213,0.213,0.168,0.175
EKVX,0.451,0.418,0.345,0.226,0.202
EMC-BAC-2,0.279,0.299,0.249,0.257,0.255
EPLC-272H,0.279,0.152,0.161,0.229,0.222
H3255,0.574,0.716,0.535,0.604,0.359
HARA,0.103,0.162,0.0997,0.0987,0.0859
HCC-15,0.437,0.379,0.415,0.296,0.222
HCC-44,1.03,0.914,0.626,0.543,0.613
HCC-78,0.475,0.404,0.341,0.299,0.232
HCC-366,0.14,0.0951,0.0932,0.0432,0.0587
HCC-827,0.449,0.448,0.447,0.235,0.295

Cell Line,relative viability (first compound 0.01 µM),relative viability (first compound 0.03162 µM),relative viability (first compound 0.1 µM),relative viability (first compound 0.3162 µM),relative viability (first compound 1 µM)
HOP-62,0.414,0.46,0.401,0.292,0.273
LC-2-ad,0.491,0.564,0.366,0.339,0.377
LCLC-97TM1,0.207,0.157,0.128,0.118,0.137
LCLC-103H,0.493,0.494,0.399,0.367,0.25
LK-2,0.147,0.133,0.182,0.15,0.154
LOU-NH91,0.735,0.716,0.693,0.672,0.506
LU99A,0.289,0.268,0.2,0.198,0.21
LXF-289,0.234,0.295,0.212,0.201,0.105
NCI-H23,0.486,0.311,0.248,0.24,0.235
NCI-H322M,0.458,0.45,0.408,0.347,0.326
NCI-H358,0.0893,0.121,0.102,0.0607,0.0813
NCI-H441,0.591,0.767,0.499,0.309,0.295
NCI-H460,0.648,0.675,0.529,0.208,0.124
NCI-H520,0.381,0.305,0.213,0.251,0.192
NCI-H522,0.571,0.544,0.421,0.421,0.425
NCI-H596,0.698,0.698,0.434,0.308,0.329
NCI-H647,0.319,0.27,0.28,0.143,0.088
